Measurements: patent publication US20040191289A1, “Compositions for controlling plant pathogenic bacterium and method of controlling plant pathogenic bacterium” (priority 2001, published 2004)

Columns and labels:
[1] = tested on: Pythium debaryanum (MAFF No. 305462); experiment: Antimicrobial test, mycelial growth on PSA medium (Test Example 4); assay type: cell-based; conditions: 20° C., 1 day incubation
Protocol: (§1) Each sample fungal flora pre-cultured in PSA medium was cut from the medium plate with a cork borer, and placed on a center of PSA medium containing each test compound at a predetermined concentration, dispensed in a Petri dish with an inner diameter of 8 cm. Immediately thereafter, the dish was allowed to stand in a thermostatic room set at 20° C. […] In cases where an observed value is lower than the theoretically expected one derived from the Colby's formula, the phytopathogenic microorganism-disinfecting composition of the present invention is synergistically effective in combating and/or eliminating phytopathogenic microorganisms.

[2] = tested on: Aphanomyces cochlioides (MAFF No. 305548); experiment: as above; assay type: cell-based; conditions: 20° C., 3 day incubation
Protocol: as §1

[3] = tested on: Pythium Damping-off Disease of Rice Seedlings; experiment: Test for prophylactic efficacy against Pythium damping-off disease of rice seedlings (2) (Test Example 3); assay type: in vivo; conditions: soil irrigation, 35 days after sowing
Protocol: (§2) AS resin cases (each 15×11 cm) were filled with pathogen-inoculated soil as bed soil, and seeded with rice seeds. Next, the AS resin case was irrigated using a pipette with a test solution (50 ml) prepared by adjusting each active ingredient compound to a predetermined concentration, and then covered with soil. After kept for 3 days in a thermostatic room set at 32° C., the plants were grown in a greenhouse. Ten days after sowing, the plants were exposed to a cold temperature during night for 3 days. Thirty five days after sowing, the disease incidence area was examined. In these cases, each theoretically expected value obtained from the aforementioned formula derived from the Colby's formula is shown in parentheses in Table 4.

[4] = tested on: Pythium Damping-off Disease of Rice Seedlings; experiment: Test for prophylactic efficacy against Pythium damping-off disease of rice seedlings (1) (Test Example 2); assay type: in vivo; conditions: soil irrigation, 29 days after sowing
Protocol: as §2, with “Polyvinyl chloride cups” for “AS resin cases”, “10 cm square)” for “15×11 cm)”, “polyvinyl chloride cup” for “AS resin case”, “(27.8” for “(50”, “night. Twenty nine” for “night for 3 days. Thirty five”, “3.” for “4.”

Pythium spinosum = experiment: Antimicrobial test, mycelial growth on PSA medium (Test Example 1); assay type: cell-based; conditions: 20° C., 2 day incubation
Protocol: (§3) Each sample fungal flora pre-cultured in PSA medium was cut from the medium plate with a cork borer, and placed on a center of PSA medium containing each test compound at a predetermined concentration, dispensed in a Petri dish with an inner diameter of 8 cm. Immediately thereafter, the dish was allowed to stand in a thermostatic room set at 20° C. The diameters of the flora zones were measured after 2 day incubation. A mycelial growth rate is calculated according to the following equation. […] A theoretically expected value can be calculated according to the following formula derived from the so-called Colby's formula. In cases where an observed value is lower than the theoretically expected one obtained from the formula derived from the Colby's formula, the phytopathogenic microorganism-disinfecting composition of the present invention is synergistically effective in combating and/or eliminating phytopathogenic microorganisms.

Pythium aphanidermatum = experiment: as above; assay type: cell-based; conditions: 20° C., 2 day incubation
Protocol: as §3

Cc1cc(O)no1 [Hymexazol, 5-methylisoxazol-3-ol]
Mycelial Growth Rate (%) ([1]; Hymexazol 25 ppm alone): 89% | Mycelial Growth Rate (%) ([1]; Hymexazol 50 ppm alone): 84% | Mycelial Growth Rate (%) ([1]; Hymexazol 100 ppm alone): 67% | Mycelial Growth Rate (%) ([2]; Hymexazol 25 ppm alone): 53% | Mycelial Growth Rate (%) ([2]; Hymexazol 50 ppm alone): 43% | Mycelial Growth Rate (%) ([2]; Hymexazol 100 ppm alone): 43% | Damping-off Incidence Area Rate (%) ([3]; Hymexazol 1,040 g/ha alone (Compound No. 1 0 ppm)): 90% | Damping-off Incidence Area Rate (%) ([4]; Hymexazol 1,040 g/ha alone): 50% | Mycelial Growth Rate (%) (Pythium spinosum; Hymexazol 25 ppm alone): 27.8% | Mycelial Growth Rate (%) (Pythium spinosum; Hymexazol 50 ppm alone): 21.6% | Mycelial Growth Rate (%) (Pythium spinosum; Hymexazol 100 ppm alone): 23.7% | Mycelial Growth Rate (%) (Pythium aphanidermatum; Hymexazol 25 ppm alone): 22.7% | Mycelial Growth Rate (%) (Pythium aphanidermatum; Hymexazol 50 ppm alone): 16.4% | Mycelial Growth Rate (%) (Pythium aphanidermatum; Hymexazol 100 ppm alone): 6.3%

Cc1ccc(-c2c(Cl)nc(C#N)n2S(=O)(=O)N(C)C)cc1 [Compound No. 1, 4-chloro-2-cyano-1-dimethylsulfamoyl-5-(4-methyl-phenyl)imidazole]
Mycelial Growth Rate (%) ([1]; Compound No. 1 25 ppm alone): 59% | Mycelial Growth Rate (%) ([1]; Compound No. 1 50 ppm alone): 49% | Mycelial Growth Rate (%) ([1]; Compound No. 1 100 ppm alone): 44% | Mycelial Growth Rate (%) ([2]; Compound No. 1 25 ppm alone): 52% | Mycelial Growth Rate (%) ([2]; Compound No. 1 50 ppm alone): 29% | Mycelial Growth Rate (%) ([2]; Compound No. 1 100 ppm alone): 11% | Damping-off Incidence Area Rate (%) ([3]; Compound No. 1 139 g/ha alone): 50% | Damping-off Incidence Area Rate (%) ([4]; Compound No. 1 278 g/ha alone): 67% | Mycelial Growth Rate (%) (Pythium spinosum; Compound No. 1 25 ppm alone): 14.4% | Mycelial Growth Rate (%) (Pythium spinosum; Compound No. 1 50 ppm alone): 9.3% | Mycelial Growth Rate (%) (Pythium spinosum; Compound No. 1 100 ppm alone): 2.1% | Mycelial Growth Rate (%) (Pythium aphanidermatum; Compound No. 1 25 ppm alone): 21.1% | Mycelial Growth Rate (%) (Pythium aphanidermatum; Compound No. 1 50 ppm alone): 6.3% | Mycelial Growth Rate (%) (Pythium aphanidermatum; Compound No. 1 100 ppm alone): 9.4%
